This experiment has as its target T1, bovine cerebral TPK1 (Bos taurus, UniProt A0A3Q1MT31).
T1 construct: from tissue; host or cells: bovine brain (cerebrum)
The experiment can be described thus: Inhibitory activity against P-GS1 phosphorylation by bovine cerebral TPK1. The settings on record: 41.7 μM [γ-32P]ATP, 25° C., 2 hours, pH 6.5. Format: biochemical. On the procedure:
Test Example: Inhibitory activity of the medicament of the present invention against P-GS1 phosphorylation by bovine cerebral TPK1
A mixture containing 100 mM MES-sodium hydroxide (pH 6.5), 1 mM magnesium acetate, 0.5 mM EGTA, 5 mM β-mercaptoethanol, 0.02% Tween 20, 10% glycerol, 12 μg/ml P-GS1, 41.7 μM [Υ-^32P] ATP (68 kBq/ml), bovine cerebral TPK1 and a compound shown in Table (a final mixture contained 1.7% DMSO deriving from a solution of a test compound prepared in the presence of 10% DMSO) was used as a reaction system. The phosphorylation was started by adding ATP, and the reaction was conducted at 25° C. for 2 hours, and then stopped by adding 21% perchloric acid on ice cooling. The reaction mixture was centrifuged at 12,000 rpm for 5 minutes and adsorbed on P81 paper (Whatmann), and then the paper was washed four times with 75 mM phosphoric acid, three times with water and once with acetone. The paper was dried, and the residual radioactivity was measured using a liquid scintillation counter.

Results on 56 molecules are retold here after patent US7427615B2, “3-substituted-4-pyrimidone derivatives” (Mitsubishi Pharma Corporation, priority 2001, dated 2008).

pIC50: −log10 of the molar value.

In general, pIC50 refers to the IC50 on a negative log10 scale, so that one unit is a factor of ten.

T1 sequence (A0A3Q1MT31 1-419): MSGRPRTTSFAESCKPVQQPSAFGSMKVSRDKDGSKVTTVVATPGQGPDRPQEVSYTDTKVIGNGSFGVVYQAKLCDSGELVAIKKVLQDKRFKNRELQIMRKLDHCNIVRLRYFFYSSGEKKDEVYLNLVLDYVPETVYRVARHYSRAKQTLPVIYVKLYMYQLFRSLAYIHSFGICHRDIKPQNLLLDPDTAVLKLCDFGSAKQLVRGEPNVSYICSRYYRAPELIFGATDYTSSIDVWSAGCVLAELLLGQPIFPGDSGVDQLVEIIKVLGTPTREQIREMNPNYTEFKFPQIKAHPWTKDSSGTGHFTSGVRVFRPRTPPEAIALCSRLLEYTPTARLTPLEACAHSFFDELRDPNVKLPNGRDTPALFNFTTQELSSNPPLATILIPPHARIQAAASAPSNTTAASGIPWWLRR

The molecule `COc1cccc(OC)c1[C@H]1CN(c2nc(-c3ccncc3)cc(=O)n2C)CCO1` [B103] gave a negative logarithm of the IC50 (pIC50) of 9.44. Next, `Cn1c(N2CCOC(CCc3ccccc3)C2)nc(-c2ccncc2)cc1=O` (centres unmarked) [B010]: 8.22; `CCOc1ccccc1C1CN(c2nc(-c3ccncc3)cc(=O)n2C)CCO1` (centres unmarked) [B087]: 8.30. Next, `COc1cc(F)ccc1[C@@H]1CN(c2nc(-c3ccncc3)cc(=O)n2C)CCO1` [B285]: 8.05; `Cn1c(N2CCOC(C(=O)c3ccccc3)C2)nc(-c2ccncc2)cc1=O` (centres unmarked) [C101, 2-(2-benzoylmorpholin-4-yl)-3-methyl-6-pyridin-4-yl-3H-pyrimidin-4-one]: 8.46; `Cn1c(N2CCO[C@H](c3c(Cl)cccc3Cl)C2)nc(-c2ccncc2)cc1=O` [B107]: 7.30.

`Cn1c(N2CCCC(C(=O)Nc3ccccc3)C2)nc(-c2ccncc2)cc1=O` (centres unmarked) [C067, 1-(1-Methyl-6-oxo-4-pyridin-4-yl-1,6-dihydro-pyrimidine-2-yl)-piperidine-3-carboxanilide] gave a pIC50 of 7.14. The pIC50 values of the last two molecules are within 0.2 log units of each other.

In the case of `COc1cc(OC(C)C)ccc1C1CN(c2nc(-c3ccncc3)cc(=O)n2C)CCO1` (centres unmarked) [B261], the negative-log IC50 (pIC50) is 8.89. Next, `COc1ccccc1[C@H]1CN(c2nc(-c3ccncc3)cc(=O)n2C)CCO1` [B085]: 8.85; `COc1cccc(C(=O)C2CCN(c3nc(-c4ccncc4)cc(=O)n3C)CC2)c1OC` [D011]: 7.96. The same measure for `Cn1c(N2CCO[C@@H](c3c(Cl)cccc3Cl)C2)nc(-c2ccncc2)cc1=O` [B106]: 8.85; for `COc1ccccc1C1CN(c2nc(-c3ccncc3)cc(=O)n2C)CCO1` (centres unmarked) [B084]: 8.96; for `Cn1c(N2CCOC(c3ccc(F)cc3Cl)C2)nc(-c2ccncc2)cc1=O` (centres unmarked) [B253]: 7.82. Next, `Cn1c(N2CCC(C(=O)c3cccs3)CC2)nc(-c2ccncc2)cc1=O` [D014]: 7.70. On to `Cn1c(N2CCOC(c3ccccc3Br)C2)nc(-c2ccncc2)cc1=O` (centres unmarked) [B054], for which the pIC50 was 8.40. As to `Cc1ccccc1C1CN(c2nc(-c3ccncc3)cc(=O)n2C)CCO1` (centres unmarked) [B063], the pIC50 was 8.22. The pIC50 values of the last two molecules are within 0.2 log units of each other. The same measure for `Cn1c(N2CCOC(c3ccc(OCC4CC4)cc3)C2)nc(-c2ccncc2)cc1=O` (centres unmarked) [B128]: 7.52; for `COc1cc(-c2ccccc2F)ccc1C1CN(c2nc(-c3ccncc3)cc(=O)n2C)CCO1` (centres unmarked) [B290]: 8.70; for `Cn1c(N2CCOC(c3cccc(N4CCCC4)c3)C2)nc(-c2ccncc2)cc1=O` (single isomer, unassigned) [B289]: 7.48. For `COc1cc(F)ccc1C1CN(c2nc(-c3ccncc3)cc(=O)n2C)CCO1` (centres unmarked) [B091], the pIC50 was 8.92. The same measure for `Cn1c(NCC(=O)c2ccccc2F)nc(-c2ccncc2)cc1=O` [A002]: 7.57; for `Cn1c(N2CCOC(c3cc(F)c(F)cc3Cl)C2)nc(-c2ccncc2)cc1=O` (centres unmarked) [B097]: 8.55. Next, `Cn1c(N2CCC(C(=O)c3ccc(F)cc3F)CC2)nc(-c2ccncc2)cc1=O` [D012]: 7.72. Next, `Cn1c(N2CCO[C@@H](c3c(F)cccc3F)C2)nc(-c2ccncc2)cc1=O` [B110]: 8.09; `Cn1c(N2CCC(C(=O)N3CCCc4ccccc43)CC2)nc(-c2ccncc2)cc1=O` [D018]: 8.37; `Cn1c(N2CCO[C@@H](c3ccccc3Cl)C2)nc(-c2ccncc2)cc1=O` [B046]: 8.08. `Cn1c(NCC(=O)c2ccccc2)nc(-c2ccncc2)cc1=O` [A001, 3-methyl-2-(2-oxo-2-phenylethylamino)-6-pyridin-4-yl-3H-pyrimidin-4-one] had a pIC50 of 8.05. Next, `Cn1c(N2CCC(C(=O)n3ccc4ccccc43)CC2)nc(-c2ccncc2)cc1=O` [D017]: 8.00; `Cn1c(N2CCOC(c3ccc(F)cc3Br)C2)nc(-c2ccncc2)cc1=O` (centres unmarked) [B100]: 8.33; `Cn1c(N2CCOC(c3cccc(N4CCCC4)c3)C2)nc(-c2ccncc2)cc1=O` (single isomer, unassigned) [B288]: 7.40.

`COc1ccc(C(=O)C2CCN(c3nc(-c4ccncc4)cc(=O)n3C)CC2)cc1` [D007] had a pIC50 of 7.74.

`Cn1c(N2CCOC(C(=O)c3ccccc3)C2)nc(-c2ccncc2)cc1=O` (single isomer, unassigned) [C390] had a negative-log IC50 (pIC50) of 9.00. Next, `Cn1c(N2CCCC(C(=O)c3ccccc3)C2)nc(-c2ccncc2)cc1=O` (centres unmarked) [C001, 2-(3-Benzoylpiperidin-1-yl)-3-methyl-6-pyridin-4-yl-3H-pyrimidin-4-one]: 8.68; `Cn1c(N2CCC(C(=O)c3ccc(F)cc3)CC2)nc(-c2ccncc2)cc1=O` [D004]: 7.82.

On to `Cn1c(N2CCC(C(=O)c3ccccc3F)CC2)nc(-c2ccncc2)cc1=O` [D002], for which the pIC50 is 7.64. The molecule `Cn1c(N2CCC(C(=O)c3ccc(F)c(F)c3)CC2)nc(-c2ccncc2)cc1=O` [D013] had a pIC50 of 7.72. The same measure for `Cn1c(N2CCOC(c3ccc(F)c(F)c3)C2)nc(-c2ccncc2)cc1=O` (centres unmarked) [B257]: 7.17. With `COc1ccc(-c2cccnc2)cc1C1CN(c2nc(-c3ccncc3)cc(=O)n2C)CCO1` (centres unmarked) [B256], the pIC50 was 8.96. The same measure for `COc1cc(F)ccc1C(=O)C1CCN(c2nc(-c3ccncc3)cc(=O)n2C)CC1` [D025]: 7.80; for `Cn1c(NCC(=O)c2cccc(Cl)c2)nc(-c2ccncc2)cc1=O` [A006]: 7.89; for `Cn1c(N2CCOC(c3ccc(N4CCCC4)cc3)C2)nc(-c2ccncc2)cc1=O` (centres unmarked) [B140]: 8.10. Next, `Cn1c(N2CCOC(C(=O)c3ccccc3)C2)nc(-c2ccncc2)cc1=O` (single isomer, unassigned) [C389]: 7.47; `Cn1c(N2CCC(C(=O)c3ccc(Cl)s3)CC2)nc(-c2ccncc2)cc1=O` [D021]: 7.96; `Cn1c(N2CCC(C(=O)c3ccccc3-c3ccccc3)CC2)nc(-c2ccncc2)cc1=O` [D023]: 7.89. Next, `CCn1c(N2CCOC(c3c(OC)cccc3OC)C2)nc(-c2ccncc2)cc1=O` (centres unmarked) [B263]: 8.92; `Cn1c(N2CCOC(c3cccc(S(C)(=O)=O)c3)C2)nc(-c2ccncc2)cc1=O` (centres unmarked) [B130]: 7.28; `Cn1c(N2CCO[C@@H](c3ccccc3F)C2)nc(-c2ccncc2)cc1=O` [B037]: 8.32. With `CC(C)Oc1ccc(C2CN(c3nc(-c4ccncc4)cc(=O)n3C)CCO2)cc1` (centres unmarked) [B122], the pIC50 was 7.20. Next, `Cn1c(N2CCC(C(=O)c3cccc4ccccc34)CC2)nc(-c2ccncc2)cc1=O` [D024]: 7.72; `Cn1c(N2CCC(C(=O)N3CCc4ccccc43)CC2)nc(-c2ccncc2)cc1=O` [D019]: 8.09. The same measure for `COc1ccc(-c2cccc(CN3CCCC3)c2)cc1C1CN(c2nc(-c3ccncc3)cc(=O)n2C)CCO1` (centres unmarked) [B287]: 9.24.

Consider `Cn1c(N2CCC(C(=O)c3ccc(-c4ccccc4)cc3)CC2)nc(-c2ccncc2)cc1=O` [D022], for which the pIC50 is 8.11. Next, `Cn1c(N2CCOC(c3cccc(Br)c3)C2)nc(-c2ccncc2)cc1=O` (centres unmarked) [B051]: 8.72.

In turn, `Cn1c(N2CCC(C(=O)c3ccc(Cl)cc3)CC2)nc(-c2ccncc2)cc1=O` [D009, 2-[4-(4-Chlorobenzoyl)piperidin-1-yl]-3-methyl-6-pyridin-4-yl-3H-pyrimidin-4-one] gave a negative logarithm of the IC50 (pIC50) of 8.22.

Regarding `COc1ccc([C@H]2CN(c3nc(-c4ccncc4)cc(=O)n3C)CCO2)cc1` [B079, (S)-2-[2-(4-Methoxyphenyl)morpholin-4-yl]-3-methyl-6-pyridin-4-yl-3H-pyrimidin-4-one], the pIC50 was 8.48. Next, `Cn1c(N2CCC(C(=O)c3ccccc3)CC2)nc(-c2ccncc2)cc1=O` [D001, 2-(4-benzoylpiperidin-1-yl)-3-methyl-6-pyridin-4-yl-3H-pyrimidin-4-one]: 8.05.
